Patent US9006444B2, “Phenyl carboxamide-containing spleen tyrosine kinase (SYK) inhibitors” (Merck Sharp & Dohme Corp., priority 2011, dated 2015)
Read-outs that look alike come from different tables or passages of the source.

Columns and labels:
[1] = molecular target: T1, recombinant human GST-SYK (Homo sapiens, UniProt P43405); assay: Homogeneous Time-Resolved Fluorescence (HTRF) Assay for the Recombinant Human Syk Enzyme; type: biochemical; conditions: GST-hSYK 5 pM, ATP 25 μM, 10-dose titration
T1 construct: purchased Carna Biosciences 08-176
Protocol: Homogeneous Time-Resolved Fluorescence (HTRF) Assay for the Recombinant Human Syk Enzyme
A recombinant GST-hSYK fusion protein was used to measure potency of compounds to inhibit human Syk activity. […] Final volume of the reaction was 10 μL. Phosphorylation of the peptide was allowed to proceed for 45′ at room temperature. To quench the reaction and detect the phosphorylated product, 2 nM of a Europium-anti-phosphotyrosine antibody (Perkin Elmer #AD0161) and 70 nM SA-APC (Perkin-Elmer #CR130-100) were added together in 15 mM Tris pH 7.5, 40 mM EDTA, 0.01% tween 20. Final volume of the quenching solution was 10 μl. The resulting HTRF signal was measured after 30 minutes on an EnVision (Perkin-Elmer) reader using a time-resolved fluorescence protocol.

PGD2 = conditions: intranasal, phase I/II study, allergic rhinitis; cited from earlier work
[2] = phase II clinical trial, allergic rhinitis; cited from earlier work

| Structure (SMILES) | IC50 ([1]; read-out: rhSYK Activity) [nM] | further results |
| --- | --- | --- |
| COc1cccc(Nc2cc(N[C@@H]3CCCC[C@@H]3N)ccc2C(N)=O)n1 (relative stereo) [Example 1.2, rel-4-{[(1R,2S)-2-aminocyclohexyl]amino}-2-[(6-methoxypyridin-2-yl)amino]benzamide] | 1.5 to 15 | – |
| NC(=O)c1ccc(N[C@@H]2CCCC[C@@H]2N)cc1Nc1cccc(-n2cccn2)n1 (relative stereo) [Example 1.3, rel-4-{[(1R,2S)-2-aminocyclohexyl]amino}-2-{[6-(1H-pyrazol-1-yl)pyridin-2-yl]amino}benzamide] | 1.5 to 15 | – |
| Cc1nc(Nc2cc(N[C@@H]3CCCC[C@@H]3N)ccc2C(N)=O)ccc1F (relative stereo) [Example 1.4, rel-4-{[(1R,2S)-2-aminocyclohexyl]amino}-2-[(5-fluoro-6-methylpyridin-2-yl)amino]benzamide] | 15 to 50 | IC50 ([1]; read-out: IC50): 23 nM |
| NC(=O)c1ccc(N[C@@H]2CCCC[C@@H]2N)cc1Nc1cccc(N2CCOCC2)n1 (relative stereo) [Example 1.5, rel-4-{[(1R,2S)-2-aminocyclohexyl]amino}-2-[(6-morpholin-4-ylpyridin-2-yl)amino]benzamide] | 15 to 50 | – |
| CCOc1cccc(Nc2cc(N[C@@H]3CCCC[C@@H]3N)ccc2C(N)=O)n1 (relative stereo) [Example 1.6, rel-4-{[(1R,2S)-2-aminocyclohexyl]amino}-2-[(6-ethoxypyridin-2-yl)amino]benzamide] | 1.5 to 15 | – |
| NC(=O)c1ccc(N[C@@H]2CCCC[C@@H]2N)cc1Nc1cccc(-c2ccccc2)n1 (relative stereo) [Example 1.7, rel-4-{[(1R,2S)-2-aminocyclohexyl]amino}-2-[(6-phenylpyridin-2-yl)amino]benzamide] | < 1.5 | – |
| NC(=O)c1ccc(N[C@@H]2CCCC[C@@H]2N)cc1Nc1cccc(-c2ccncc2)n1 (relative stereo) [Example 1.8, rel-4-{[(1R,2S)-2-aminocyclohexyl]amino}-2-(2,4′-bipyridin-6-ylamino)benzamide] | < 1.5 | – |
| COc1cccc(-c2cccc(Nc3cc(N[C@@H]4CCCC[C@@H]4N)ccc3C(N)=O)n2)c1 (relative stereo) [Example 1.9, rel-4-{[(1R,2S)-2-aminocyclohexyl]amino}-2-{[6-(3-methoxyphenyl)pyridin-2-yl]amino}benzamide] | < 1.5 | IC50 ([1]; read-out: IC50): 1.3 nM |
| Cn1cc(-c2cccc(Nc3cc(N[C@@H]4CCCC[C@@H]4N)ccc3C(N)=O)n2)cn1 (relative stereo) [Example 1.10, rel-4-{[(1R,2S)-2-aminocyclohexyl]amino}-2-{[6-(1-methyl-1H-pyrazol-4-yl)pyridin-2-yl]amino}benzamide] | 1.5 to 15 | IC50 ([1]; read-out: IC50): 2 nM |
| NC(=O)c1ccc(N[C@@H]2CCCC[C@@H]2N)cc1Nc1cccc(-c2cccc(F)c2)n1 (relative stereo) [Example 1.11, rel-4-{[(1R,2S)-2-aminocyclohexyl]amino}-2-{[6-(3-fluorophenyl)pyridin-2-yl]amino}benzamide] | < 1.5 | – |
| COc1ccccc1-c1cccc(Nc2cc(N[C@@H]3CCCC[C@@H]3N)ccc2C(N)=O)n1 (relative stereo) [Example 1.12, rel-4-{[(1R,2S)-2-aminocyclohexyl]amino}-2-{[6-(2-methoxyphenyl)pyridin-2-yl]amino}benzamide] | < 1.5 | – |
| COc1ccc(-c2cccc(Nc3cc(N[C@@H]4CCCC[C@@H]4N)ccc3C(N)=O)n2)cc1 (relative stereo) [Example 1.13, rel-4-{[(1R,2S)-2-aminocyclohexyl]amino}-2-{[6-(4-methoxyphenyl)pyridin-2-yl]amino}benzamide] | < 1.5 | – |
| NC(=O)c1ccc(N[C@@H]2CCCC[C@@H]2N)cc1Nc1cccc(-c2ccc(F)cc2)n1 (relative stereo) [Example 1.14, rel-4-{[(1R,2S)-2-aminocyclohexyl]amino}-2-{[6-(4-fluorophenyl)pyridin-2-yl]amino}benzamide] | 1.5 to 15 | – |
| NC(=O)c1ccc(N[C@@H]2CCCC[C@@H]2N)cc1Nc1ccc2ccccc2n1 (relative stereo) [Example 1.15, rel-4-{[(1R,2S)-2-aminocyclohexyl]amino}-2-(quinolin-2-ylamino)benzamide] | 1.5 to 15 | – |
| NC(=O)c1ccc(N[C@@H]2CCCC[C@@H]2N)cc1Nc1cccc(-c2ccc(F)c(F)c2)n1 (relative stereo) [Example 1.16, rel-4-{[(1R,2S)-2-aminocyclohexyl]amino}-2-{[6-(3,4-difluorophenyl)pyridin-2-yl]amino}benzamide] | 1.5 to 15 | IC50 ([1]; read-out: IC50): 1.6 nM |
| NC(=O)c1ccc(N[C@@H]2CCCC[C@@H]2N)cc1Nc1cccc(-n2cccc2)n1 (relative stereo) [Example 1.17, rel-4-{[(1R,2S)-2-aminocyclohexyl]amino}-2-{[6-(1H-pyrrol-1-yl)pyridin-2-yl]amino}benzamide] | < 1.5 | – |
| Cc1cccc(Nc2cc(N[C@@H]3CCCC[C@@H]3N)ccc2C(N)=O)n1 (relative stereo) [Example 2, rel-4-{[(1R,2S)-2-aminocyclohexyl]amino}-2-[(6-methylpyridin-2-yl)amino]benzamide] | 15 to 50 | – |
| Oc1cccc(Nc2ncc(F)c(Nc3cccc(O)c3)n2)c1 [Example R112] | – | change in PGD2 (PGD2): statistically significant decrease; clinical safety (PGD2): safe across a range of indicators; efficacy versus placebo [2]: lack of efficacy versus placebo |
